This passage reports half-inhibition results from publication PMC1865377, “A novel bifunctional N-acetylglutamate synthase-kinase from Xanthomonas campestris that is closely related to mammalian N-acetylglutamate synthase” (BMC Biochemistry, 2007).

Assay [1] deals with T1, H6XcNAGS-K (Xanthomonas campestris, UniProt A0A0H2X8L7).
T1 construct: gene XC_1873; full length, E. coli BL21(DE3), pET15b, N-terminal polyhistidine tag and thrombin site kept
T1 sequence (A0A0H2X8L7 1-447): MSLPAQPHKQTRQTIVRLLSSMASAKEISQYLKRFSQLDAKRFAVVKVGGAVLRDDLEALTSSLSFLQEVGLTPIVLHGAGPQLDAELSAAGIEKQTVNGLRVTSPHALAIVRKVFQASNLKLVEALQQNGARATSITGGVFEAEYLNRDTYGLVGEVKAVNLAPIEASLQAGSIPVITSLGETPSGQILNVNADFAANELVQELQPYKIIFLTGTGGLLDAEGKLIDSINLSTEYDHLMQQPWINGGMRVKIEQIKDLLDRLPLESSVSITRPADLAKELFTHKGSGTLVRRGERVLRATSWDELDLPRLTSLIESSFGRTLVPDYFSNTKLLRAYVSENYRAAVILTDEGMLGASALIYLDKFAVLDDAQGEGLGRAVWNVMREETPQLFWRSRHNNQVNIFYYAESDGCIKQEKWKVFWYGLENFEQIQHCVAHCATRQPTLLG
The assay is described as follows: synthase activity, LC-MS of N-acetylglutamate. Format: biochemical. The following applies: 50 mM L-glutamate, 2 mM AcCoA, pH 9.0, 30 °C.

Assay [2] concerns the target T1, H6XcNAGS-K. The assay is described as follows: kinase activity, colorimetric hydroxamate assay. Format: biochemical. The following applies: 100 mM N-acetylglutamate, 20 mM ATP, 40 mM MgCl2, 400 mM hydroxylamine, pH 6.0, 30 °C.

`N=C(N)NCCC[C@H](N)C(=O)O` [L-arginine]: the half-inhibition result was “presence of an affinity tag did not affect the inhibition of the synthase activity of XcNAGS-K” on H6XcNAGS-K [1]; “half-inhibition of the kinase activities of XcNAGS-K with and without polyhistidine differed two-fold” on H6XcNAGS-K [2].
